Laboratory results: patent publication US20050165053A1, “Substituted4-aryl-3-(3-aryl-1-oxo-2-propenyl)-2(1h)-quinolinones and analogs as activators of caspases and inducers of apoptosis and the use thereof” (Cytovia, Inc., priority 2001, published 2005)

Experiments:
[1] = system: ZR-75-1; test: Caspase cascade activation assay in ZR-75-1 cells (N-(Ac-DEVD)-N'-ethoxycarbonyl-R110 fluorogenic substrate); assay type: cell-based, Human; conditions: ZR-75-1, 24 h incubation; for EC50: Homo sapiens, read-out: Caspase potency EC50; for Caspase activity Ratio (net RFU of test compound to control): 0.016 to 10 μM final
Experimental: (§1) Human breast cancer cell lines T-47D and ZR-75-1 were grown according to media component mixtures designated by American Type Culture Collection+10% FCS (Life Technologies Division of Invitrogen Corporation), in a 5% CO2-95% humidity incubator at 37° C. T-47D and ZR-75-1 cells were maintained at a cell density between 50 and 80% confluency at a cell density of 0.1 to 0.6×10^6 cells/ml. Cells were harvested at 600×g and resuspended at 0.65×10^6 cells/ml into appropriate media+10% FCS. An aliquot of 45 μl of cells was added to a well of a 96-well microtiter plate containing 2.5 μl of a 10% DMSO in RPMI-1640 media solution containing 0.16 to 100 μM of 6-bromo-3-[3-(4-nitrophenyl)-1-oxo-2-propenyl]-4-phenyl-2(1H)-quinolinone or other test compound (0.016 to 10 μM final). An aliquot of 22.5 μl of cells was added to a well of a 384-well microtiter plate containing 2.5 μl of a 10% DMSO in RPMI-1640 media solution without test compound as the control sample. The samples were mixed by agitation and then incubated at 37° C. for 24 h in a 5% CO2-95% humidity incubator. After incubation, the samples were removed from the incubator and 25 μl of a solution containing 14 μM of N-(Ac-DEVD)-N′-ethoxycarbonyl-R110 (SEQ ID No.: 1) fluorogenic substrate (Cytovia, Inc.; WO99/18856), 20% sucrose (Sigma), 20 mM DTT (Sigma), 200 mM NaCl (Sigma), 40 mM Na PIPES buffer pH 7.2 (Sigma), and 500 μg/ml lysolecithin (Calbiochem) was added. The samples were mixed by agitation and incubated at room temperature. Using a fluorescent plate reader (Model SpectraMax Gemini, Molecular Devices), an initial reading (T=0) was made approximately 1-2 min after addition of the substrate solution, employing excitation at 485 nm and emission at 530 nm, to determine the background fluorescence of the control sample. After the 3 h incubation, the samples were read for fluorescence as above (T=3 h).
(§2) The Relative Fluorescence Unit values (RFU) were used to calculate the sample readings as follows: RFU(T=3h)−Control RFU(T=0)=Net RFU(T=3h)
(§3) The activity of caspase cascade activation was determined by the ratio of the net RFU value for 6-bromo-3-[3-(4-nitrophenyl)-1-oxo-2-propenyl]-4-phenyl-2(1H)-quinolinone or other test compound to that of control samples. The EC50 (nM) was determined by a sigmoidal dose-response calculation (Prism 2.0, GraphPad Software Inc.).

[2] = system: T-47D; test: Caspase cascade activation assay in T-47D cells (N-(Ac-DEVD)-N'-ethoxycarbonyl-R110 fluorogenic substrate); assay type: cell-based, Human; conditions: 24 h incubation; for Caspase activity Ratio (net RFU of test compound to control): 0.016 to 10 μM final; for EC50: Homo sapiens, T47D, read-out: Caspase potency EC50
Experimental: as §1, §2, §3

[3] = system: ZR-75-1; test: Inhibition of cell proliferation (GI50), CellTiter 96 AQUEOUS One, ZR-75-1; assay type: cell-based; conditions: Homo sapiens, ZR-75-1, 48 h; read-out: GI50 (dose for 50% inhibition of cell proliferation)
Experimental: (§4) T-47D and ZR-75-1 cells were grown and harvested as in Example 22. An aliquot of 90 μl of cells (2.2×10^4 cells/ml) was added to a well of a 96-well microtiter plate containing 10 μl of a 10% DMSO in RPMI-1640 media solution containing 1 nM to 100 μM of 6-bromo-3-[3-(4-nitrophenyl)-1-oxo-2-propenyl]-4-phenyl-2(1H)-quinolinone (0.1 nM to 10 μM final). An aliquot of 90 μl of cells was added to a well of a 96-well microtiter plate containing 10 μl of a 10% DMSO in RPMI-1640 media solution without compound as the control sample for maximal cell proliferation (AMax). The samples were mixed by agitation and then incubated at 37° C. for 48 h in a 5% CO2-95% humidity incubator. After incubation, the samples were removed from the incubator and 20 μL of CellTiter 96 AQUEOUS One Solution Cell Proliferation™ reagent (Promega) was added. The samples were mixed by agitation and incubated at 37° C. for 2-4 h in a 5% CO2-95% humidity incubator. Using an absorbance plate reader (Model 1420 Wallac Instruments), an initial reading (T=0) was made approximately 1-2 min after addition of the solution, employing absorbance at 490 nm. This determines the possible background absorbance of the test compounds. No absorbance for 6-bromo-3-[3-(4-nitrophenyl)-1-oxo-2-propenyl]-4-phenyl-2(1H)-quinolinone was found at 490 nm. After the 2-4 h incubation, the samples were read for absorbance as above (ATest). […]

[4] = system: T-47D cells; test: Apoptosis in T-47D cells by propidium iodide flow cytometry (sub-diploid DNA content); assay type: cell-based, Human; conditions: 5 μM, 48 h, control 3%
Experimental: T-47D, a breast cancer cell line, was maintained and harvested as described in Example 22. 5×10^5 cells were treated with 5 μM of 6-bromo-3-[3-(4-nitrophenyl)-1-oxo-2-propenyl]-4-phenyl-2(1H)-quinolinone for 48 h at 37° C. As a control, cells were also incubated with equivalent amount of solvent (DMSO). Cells were harvested at 1,200 rpm and then transferred to 12×75 mm polystyrene tubes. Cells were then resuspended in 500 μl of 1% Na Citrate, 0.1% Triton X-100, 50 μg/ml of propidium iodide and incubated at room temperature for 30 min followed by flow cytometer analysis. All flow cytometry analyses were performed on FACScalibur (Becton Dickinson) using Cell Quest analysis software. The x-axis plotted the amount of fluorescence and the y-axis is plotted the number of cells with the indicated fluorescence. The T-47D control cell population profile is seen in FIG. 1A. The sub-diploid DNA content of cells (FIG. 1B) is increased from 3% to 49% with compound treatment. The sub-diploid amount of DNA is indicative of apoptotic cells which have undergone DNA degradation or fragmentation.

[5] = system: T-47D; test: Inhibition of cell proliferation (GI50), CellTiter 96 AQUEOUS One, T-47D; assay type: cell-based; conditions: Homo sapiens, T47D, 48 h, read-out: GI50 (dose for 50% inhibition of cell proliferation)
Experimental: as §4

[6] = target: T1, protein tyrosine phosphatase 1B (PTP1B) (Homo sapiens, UniProt P18031); conditions: read-out: Ki5; cited from earlier work
T1 sequence (P18031 1-435): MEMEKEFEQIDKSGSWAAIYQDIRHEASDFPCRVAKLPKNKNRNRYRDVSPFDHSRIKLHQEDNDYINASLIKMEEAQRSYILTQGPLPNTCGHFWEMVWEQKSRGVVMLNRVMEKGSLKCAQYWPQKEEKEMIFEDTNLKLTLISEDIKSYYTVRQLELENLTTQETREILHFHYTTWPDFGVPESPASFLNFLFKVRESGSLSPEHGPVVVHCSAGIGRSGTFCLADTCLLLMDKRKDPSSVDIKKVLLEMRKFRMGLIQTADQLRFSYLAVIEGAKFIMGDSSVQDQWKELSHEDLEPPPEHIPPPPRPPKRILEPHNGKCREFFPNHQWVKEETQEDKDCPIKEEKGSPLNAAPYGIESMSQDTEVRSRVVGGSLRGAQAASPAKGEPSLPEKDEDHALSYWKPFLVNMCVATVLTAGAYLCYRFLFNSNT

| Structure (SMILES) | EC50 [1] [nM] | Caspase activity Ratio (net RFU of test compound to control) [1] | Caspase activity Ratio (net RFU of test compound to control) [2] | EC50 [2] [nM] | GI50 [3] [nM] | sub-diploid DNA content of cells (M1) [4] [%] | GI50 [5] [nM] | Ki [6] [nM] |
| --- | --- | --- | --- | --- | --- | --- | --- | --- |
| O=C(C=Cc1cccc([N+](=O)[O-])c1)c1c(-c2ccccc2)c2cc(Br)ccc2[nH]c1=O [Compound B, 6-bromo-3-[3-(3-nitrophenyl)-1-oxo-2-propenyl]-4-phenyl-2(1H)-quinolinone] | 1800 | 12.1 | 10.6 | 849 | – | – | – | – |
| O=C(C=Cc1ccc([N+](=O)[O-])cc1)c1c(-c2ccccc2)c2cc(Br)ccc2[nH]c1=O [Compound A, 6-bromo-3-[3-(4-nitrophenyl)-1-oxo-2-propenyl]-4-phenyl-2(1H)-quinolinone] | 3300 | 12.4 | 8.7 | 1900 | 500 | 49 | 500 | – |
| O=C(/C=C/c1cccc([N+](=O)[O-])c1)c1c(-c2ccccc2)c2ccc([N+](=O)[O-])cc2[nH]c1=O [7-Nitro-3-[3-(3-nitrophenyl)-acryloyl]-4-phenyl-1H-quinolin-2-one] | – | – | – | – | – | – | – | 54000 |
